Experimental data from US20070116654A1, “Cosmetics” (SHISEIDO CO., LTD., priority 2001, published 2007).

System: back of a marmot
Experiment: Continuous skin irritation test of retinol
Assay type: in vivo
Conditions: polar oil blend ratio 8 mass %, 0.2 mass % retinol
Experimental: “Continuous Skin Irritation Test”
0.05 ml of a sample solution containing a lipophilic drug was applied on a 2×2 cm area of the back of a marmot (first application).
24 hours later, the second application was done.
Again, 24 hours later, the third application was done.
Before the second application, before the third application, and 24 hours after the third application, skin reactions such as erythema and edema was observed by naked eye. Evaluation was conducted based on the following criteria, and the average of the three scores was used as the skin reaction score.
Evaluation Criteria of the Skin Reaction

CCCCCCCC(=O)OCC(COC(=O)CCCCCCC)(COC(=O)CCCCCCC)COC(=O)CCCCCCC [pentaerythrityl tetraoctanoate]
skin irritation suppression effect (retinol), FIG. 9: superior skin irritation suppression effect
